# Test results: US20040121946A9, “Inducing cellular immune responses to her2/neu using peptide and nucleic acid compositions” (priority 2002, published 2004)
# Where no end group is shown, it is not given here.
# How the values were obtained:
# DRB1*0301 (DR3) = DRB1*0301 (DR3) (Homo sapiens, UniProt P01903+P01911, A100K/A102G/A103R/A169T/F55Y/I96L/K41T/L162R/M171V/P40S/Q125H/Q178H/Q39Y/R42S/S66N/T106N/T262R/W38E/Y61H); assay: HLA class II peptide binding assay, purified HLA; details: unit not given
# [1] = test system: HLA-DR molecules (DR1, DR4w4, DR7, DRB5*0101, DRB1*1501, DRB1*1101, DRB1*0802, DRB1*1302); assay: DR supertype cross-reactive binding; parameters: species or system human; details: for DR147 Cross-binding: number of DR1, DR4w4, DR7 bound, Table XXVIII
# HLA-B*0702 = HLA-B*0702 (Homo sapiens, UniProt P01889); assay type: binding; details: Table XXIV, B7 supermotif peptides
# [2] = Table XIX, DR supermotif peptides
# [3] = Table XXa, DR 3a motif peptides
Compound,DR3 binding data (DRB1*0301 (DR3); [2]),DR3 binding data (DRB1*0301 (DR3); [3]),other results
CSCC[C@H](NC(=O)[C@H](CCCNC(=N)N)NC(=O)[C@H](CO)NC(=O)[C@H](Cc1ccccc1)NC(=O)[C@H](CCC(=O)O)NC(=O)[C@H](CO)NC(=O)[C@@H](NC(=O)[C@H](CC(C)C)NC(=O)[C@H](CCC(=O)O)NC(=O)[C@H](CCCNC(=N)N)NC(=O)[C@@H](N)Cc1ccccc1)C(C)C)C(=O)N[C@@H](C)C(=O)N[C@@H](CCCNC(=N)N)C(=O)N[C@@H](CC(=O)O)C(=O)N1CCC[C@H]1C(=O)O,0.0710,0.0710,–
CC[C@H](C)[C@H](NC(=O)[C@@H](NC(=O)[C@@H](NC(=O)[C@H](Cc1ccccc1)NC(=O)[C@H](CCCNC(=N)N)NC(=O)[C@H](CCC(N)=O)NC(=O)[C@@H]1CCCN1C(=O)[C@H](CC(=O)O)NC(=O)[C@H](CCCNC(=N)N)NC(=O)[C@H](C)NC(=O)[C@H](CCSC)NC(=O)[C@H](CCCNC(=N)N)NC(=O)[C@H](CO)NC(=O)[C@@H](N)Cc1ccccc1)C(C)C)C(C)C)C(=O)N[C@@H](CCC(N)=O)C(=O)O,–,0.1600,–
CC[C@H](C)[C@H](NC(=O)[C@@H](NC(=O)[C@H](CS)NC(=O)[C@@H](NC(=O)[C@@H]1CCCN1C(=O)[C@@H]1CCCN1C(=O)[C@H](CCC(N)=O)NC(=O)[C@@H]1CCCN1C(=O)[C@H](CC(C)C)NC(=O)[C@H](CCCNC(=N)N)NC(=O)[C@H](CCC(=O)O)NC(=O)CN)[C@@H](C)CC)[C@@H](C)O)C(=O)N[C@@H](CC(=O)O)C(=O)N[C@H](C(=O)N[C@@H](Cc1ccc(O)cc1)C(=O)O)C(C)C,–,–,DR147 Cross-binding [1]: 0
CC(C)C[C@H](NC(=O)[C@H](C)NC(=O)[C@H](Cc1ccc(O)cc1)NC(=O)[C@H](CC(N)=O)NC(=O)[C@H](CC(=O)O)NC(=O)[C@H](CCC(=O)O)NC(=O)[C@H](Cc1ccccc1)NC(=O)[C@H](CC(C)C)NC(=O)[C@H](CCC(N)=O)NC(=O)[C@@H](NC(=O)CN)[C@@H](C)O)C(=O)N[C@@H](C)C(=O)N[C@H](C(=O)N[C@@H](CC(C)C)C(=O)N[C@@H](CC(=O)O)C(=O)O)C(C)C,–,0.2200,–
CC(C)C[C@H](NC(=O)[C@H](CS)NC(=O)[C@H](Cc1c[nH]cn1)NC(=O)[C@H](CCCNC(=N)N)NC(=O)[C@H](C)NC(=O)[C@H](CC(N)=O)NC(=O)[C@@H](NC(=O)[C@H](Cc1ccc(O)cc1)NC(=O)[C@H](CCC(=O)O)NC(=O)[C@H](CCCNC(=N)N)NC(=O)[C@@H]1CCCN1C(=O)[C@H](CC(C)C)NC(=O)CNC(=O)[C@H](CCC(N)=O)NC(=O)[C@@H](N)CC(C)C)C(C)C)C(=O)O,−0.0027,−0.0027,–
CC(C)C[C@H](NC(=O)[C@@H]1CCCN1C(=O)[C@@H](NC(=O)[C@@H](NC(=O)[C@@H]1CCCN1C(=O)[C@H](CC(=O)O)NC(=O)[C@H](CCC(=O)O)NC(=O)[C@H](CO)NC(=O)[C@H](Cc1ccc(O)cc1)NC(=O)[C@H](CCCNC(=N)N)NC(=O)[C@H](CCC(N)=O)NC(=O)[C@@H](N)CC(C)C)[C@@H](C)O)C(C)C)C(=O)N1CCC[C@H]1C(=O)N[C@@H](CO)C(=O)N[C@@H](CCC(=O)O)C(=O)O,0.0270,0.0270,–
CC[C@H](C)[C@H](NC(=O)CNC(=O)[C@@H](NC(=O)[C@@H](NC(=O)[C@H](C)NC(=O)[C@H](CO)NC(=O)[C@@H](NC(=O)[C@@H](NC(=O)[C@H](CO)NC(=O)[C@@H](NC(=O)[C@@H](N)CC(C)C)[C@@H](C)O)[C@@H](C)CC)[C@@H](C)CC)C(C)C)C(C)C)C(=O)N[C@@H](CC(C)C)C(=O)N[C@@H](CC(C)C)C(=O)N[C@H](C(=O)N[C@H](C(=O)O)C(C)C)C(C)C,–,–,DR147 Cross-binding [1]: 1
CSCC[C@H](NC(=O)[C@H](CC(=O)O)NC(=O)[C@H](CC(=O)O)NC(=O)[C@H](CC(=O)O)NC(=O)[C@H](CCC(=O)O)NC(=O)[C@H](CC(C)C)NC(=O)[C@H](CC(C)C)NC(=O)[C@H](CO)NC(=O)[C@@H](N)CCCNC(=N)N)C(=O)NCC(=O)N[C@@H](CC(=O)O)C(=O)N[C@@H](CC(C)C)C(=O)N[C@H](C(=O)N[C@@H](CC(=O)O)C(=O)N[C@@H](C)C(=O)O)C(C)C,0.0080,0.0080,–
CC(C)C[C@H](NC(=O)CNC(=O)[C@H](Cc1c[nH]c2ccccc12)NC(=O)[C@@H](N)CCCNC(=N)N)C(=O)N[C@@H](CC(C)C)C(=O)N[C@@H](CC(C)C)C(=O)N[C@@H](C)C(=O)N[C@@H](CC(C)C)C(=O)N[C@@H](CC(C)C)C(=O)N1CCC[C@H]1C(=O)N1CCC[C@H]1C(=O)NCC(=O)N[C@@H](C)C(=O)N[C@@H](C)C(=O)N[C@@H](CO)C(=O)O,–,–,DR147 Cross-binding [1]: 2; Broad Binding (5/8) ([1]; number of the 8 DR alleles bound): 6
CSCC[C@H](NC(=O)[C@H](CC(=O)O)NC(=O)[C@H](CC(=O)O)NC(=O)[C@H](CC(=O)O)NC(=O)[C@H](CCC(=O)O)NC(=O)[C@H](CC(C)C)NC(=O)[C@H](CC(C)C)NC(=O)[C@H](CO)NC(=O)[C@H](CCCNC(=N)N)NC(=O)[C@@H](N)Cc1ccc(O)cc1)C(=O)NCC(=O)N[C@@H](CC(=O)O)C(=O)N[C@@H](CC(C)C)C(=O)N[C@H](C(=O)N[C@@H](CC(=O)O)C(=O)O)C(C)C,–,0.0630,–
CC[C@H](C)[C@H](NC(=O)[C@H](CO)NC(=O)[C@H](CC(C)C)NC(=O)[C@H](CO)NC(=O)[C@H](C)NC(=O)[C@H](CC(N)=O)NC(=O)[C@@H](NC(=O)[C@@H]1CCCN1C(=O)[C@@H](N)Cc1ccccc1)[C@@H](C)O)C(=O)O [Her2/neu.65.F1I9],–,–,IC50 (HLA-B*0702): 4.6 nM
CC[C@H](C)[C@H](NC(=O)[C@H](Cc1ccccc1)NC(=O)[C@H](CO)NC(=O)[C@H](CC(C)C)NC(=O)[C@H](CO)NC(=O)[C@H](C)NC(=O)[C@H](CC(N)=O)NC(=O)[C@@H](NC(=O)[C@@H]1CCCN1C(=O)[C@@H](N)Cc1ccccc1)[C@@H](C)O)C(=O)O [Her2/neu.65.F1I10],–,–,IC50 (HLA-B*0702): 120 nM
CC[C@H](C)[C@H](NC(=O)[C@@H]1CCCN1C(=O)[C@@H](NC(=O)[C@@H](NC(=O)[C@H](CC(N)=O)NC(=O)[C@H](CC(N)=O)NC(=O)[C@H](CC(C)C)NC(=O)[C@@H]1CCCN1C(=O)[C@@H](N)Cc1ccccc1)[C@@H](C)O)[C@@H](C)O)C(=O)O [Her2/neu.121.F1I9],–,–,IC50 (HLA-B*0702): 1.6 nM
AIKVLRENTSPKANK,0.0075,0.0075,–
DLTLGLEPSEEEAPR,−0.0025,−0.0025,–
ETEYHADGGKVPIKW,–,−0.0027,–
FPGGLRELQI [Her2/neu.133.F1I10],–,–,IC50 (HLA-B*0702): 306 nM
FPLNNTTPV [Her2/neu.121.F1],–,–,IC50 (HLA-B*0702): 0.2 nM
KNGVVKDVFAFGGAV,–,−0.0025,–
NKEILDEAYVMAGVG,–,0.0047,–
NQEVTAEDGTQRCEK,–,−0.0027,–
SLSFLQDIQEVQGYV,–,0.0520,–
TAPLQPEQLQVEETL,–,0.0023,–
TVPLPSETDGYVAPL,–,−0.0025,–

# Now from value to compound, other results behind:
DR3 binding data (DRB1*0301 (DR3); [2]),DR3 binding data (DRB1*0301 (DR3); [3]),Compound,other results
0.0083,0.0083,CSCC[C@H](NC(=O)CNC(=O)[C@H](CC(C)C)NC(=O)CNC(=O)[C@H](Cc1ccc(O)cc1)NC(=O)[C@@H](N)CS)C(=O)N[C@@H](CCC(=O)O)C(=O)N[C@@H](Cc1c[nH]cn1)C(=O)N[C@@H](CC(C)C)C(=O)N[C@@H](CCCNC(=N)N)C(=O)N[C@@H](CCC(=O)O)C(=O)N[C@H](C(=O)N[C@@H](CCCNC(=N)N)C(=O)N[C@@H](C)C(=O)N[C@H](C(=O)O)C(C)C)C(C)C,–
−0.0027,−0.0027,CC(C)C[C@H](NC(=O)[C@@H]1CCCN1C(=O)[C@H](C)NC(=O)[C@@H](NC(=O)[C@H](CC(N)=O)NC(=O)[C@H](CO)NC(=O)[C@H](C)NC(=O)[C@@H]1CCCN1C(=O)[C@H](CC(=O)O)NC(=O)CNC(=O)[C@H](CC(=O)O)NC(=O)[C@H](Cc1ccccc1)NC(=O)[C@H](CO)NC(=O)[C@H](CCC(=O)O)NC(=O)[C@@H]1CCCN1)[C@@H](C)O)C(=O)O,–
−0.0027,−0.0027,CC[C@H](C)[C@H](NC(=O)[C@@H]1CCCN1C(=O)[C@H](CCSC)NC(=O)[C@H](Cc1ccc(O)cc1)NC(=O)[C@H](CO)NC(=O)[C@H](CC(C)C)NC(=O)[C@H](CC(=O)O)NC(=O)[C@@H]1CCCN1C(=O)[C@H](CCCCN)NC(=O)[C@@H](NC(=O)CNC(=O)[C@H](CO)NC(=O)[C@@H]1CCCN1)C(C)C)C(=O)N[C@@H](Cc1c[nH]c2ccccc12)C(=O)N[C@@H](CCCCN)C(=O)O,–
0.0023,–,CC(C)C[C@H](NC(=O)[C@@H](NC(=O)[C@H](CCC(=O)O)NC(=O)[C@H](Cc1ccccc1)NC(=O)[C@@H](NC(=O)[C@H](CCC(N)=O)NC(=O)[C@H](CC(C)C)NC(=O)[C@H](CCC(N)=O)NC(=O)[C@H](CCC(=O)O)NC(=O)[C@@H]1CCCN1C(=O)[C@H](CCC(N)=O)NC(=O)[C@H](CC(C)C)NC(=O)[C@@H]1CCCN1C(=O)[C@H](C)NC(=O)[C@@H](N)[C@@H](C)O)C(C)C)[C@@H](C)O)C(=O)O,–
0.0220,0.0220,CC(C)C[C@H](NC(=O)[C@H](CCC(N)=O)NC(=O)[C@H](CC(=O)O)NC(=O)[C@H](Cc1c[nH]c2ccccc12)NC(=O)[C@@H]1CCCN1C(=O)[C@@H](NC(=O)[C@@H](NC(=O)[C@H](Cc1c[nH]cn1)NC(=O)[C@@H](N)C(C)C)[C@@H](C)O)C(C)C)C(=O)N[C@@H](Cc1ccccc1)C(=O)N[C@@H](CCCNC(=N)N)C(=O)N[C@@H](CC(N)=O)C(=O)N1CCC[C@H]1C(=O)N[C@@H](Cc1c[nH]cn1)C(=O)N[C@@H](CCC(N)=O)C(=O)O,–
–,−0.0025,DNLYYWDQDPPERGA,–
–,−0.0027,DTILWKDIFHKNNQL,–
−0.0025,−0.0025,FVVIQNEDLGPASPL,–
–,0.0250,GDLVDAEEYLVPQQG,–
–,−0.0027,LVTYNTDTFESMPNP,–
–,−0.0027,MRRLLQETELVEPLT,–
–,−0.0025,SDVFDGDLGMGAAKG,–
–,−0.0027,SLAFLPESFDGDPAS,–
